Data on 20 molecules can be found in patent US10925876B2, “Methods for using triazolo-pyrazinyl soluble guanylate cyclase activators in fibrotic disorders” (Merck Sharp & Dohme Corp., priority 2016, dated 2021).

The assay has as its target T1, sGC α1/β1 heterodimer (Homo sapiens, UniProt Q02108+Q02153).
T1 construct: expressed in transfected cells
T1 sequence (Q02108 1-690): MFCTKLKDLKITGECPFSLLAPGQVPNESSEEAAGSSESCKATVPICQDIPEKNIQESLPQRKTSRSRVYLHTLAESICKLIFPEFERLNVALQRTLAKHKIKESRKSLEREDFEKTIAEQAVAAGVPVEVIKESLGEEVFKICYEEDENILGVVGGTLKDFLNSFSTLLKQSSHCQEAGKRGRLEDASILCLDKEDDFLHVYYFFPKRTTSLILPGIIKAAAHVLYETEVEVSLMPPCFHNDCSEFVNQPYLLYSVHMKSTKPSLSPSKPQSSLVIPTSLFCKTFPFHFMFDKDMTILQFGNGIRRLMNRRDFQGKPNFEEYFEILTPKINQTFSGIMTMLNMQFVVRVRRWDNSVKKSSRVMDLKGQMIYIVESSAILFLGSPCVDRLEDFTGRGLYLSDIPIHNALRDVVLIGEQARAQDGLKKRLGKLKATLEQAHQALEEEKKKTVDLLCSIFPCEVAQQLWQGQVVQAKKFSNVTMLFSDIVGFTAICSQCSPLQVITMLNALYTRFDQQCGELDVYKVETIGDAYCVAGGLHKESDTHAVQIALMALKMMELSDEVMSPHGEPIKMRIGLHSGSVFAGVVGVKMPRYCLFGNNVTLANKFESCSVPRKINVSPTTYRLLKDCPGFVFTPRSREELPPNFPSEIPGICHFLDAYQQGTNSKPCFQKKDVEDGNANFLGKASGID
T1 sequence (Q02153 1-619): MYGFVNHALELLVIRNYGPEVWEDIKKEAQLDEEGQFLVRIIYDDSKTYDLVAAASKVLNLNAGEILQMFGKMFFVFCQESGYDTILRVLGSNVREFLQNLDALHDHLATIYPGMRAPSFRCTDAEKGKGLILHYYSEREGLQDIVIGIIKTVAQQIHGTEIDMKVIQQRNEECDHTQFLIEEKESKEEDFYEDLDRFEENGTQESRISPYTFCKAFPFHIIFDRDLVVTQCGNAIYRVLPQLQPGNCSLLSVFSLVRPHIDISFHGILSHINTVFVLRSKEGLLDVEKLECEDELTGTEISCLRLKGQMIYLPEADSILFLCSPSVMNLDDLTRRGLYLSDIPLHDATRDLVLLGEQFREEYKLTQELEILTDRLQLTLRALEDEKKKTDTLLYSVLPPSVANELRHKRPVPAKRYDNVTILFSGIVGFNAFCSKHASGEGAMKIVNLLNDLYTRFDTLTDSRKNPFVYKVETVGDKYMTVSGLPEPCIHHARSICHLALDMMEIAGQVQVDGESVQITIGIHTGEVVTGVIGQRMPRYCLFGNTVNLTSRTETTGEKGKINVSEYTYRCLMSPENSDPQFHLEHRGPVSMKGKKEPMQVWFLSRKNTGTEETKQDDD
Briefly: Cell-Based sGC Functional Assay (CASA Assay), cGMP generation in CHO-K1/sGC cells.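 Also: reference Compound A is a published heme-dependent sGC activator.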 The settings on record: maximum cGMP production of Compound A set to 100% activation, read-out: % Act. (percent activation relative to Compound A). Summed up: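 Intracellular cGMP quantified by HTRF competition after 1 h, 37 °C compound exposure, with or without 1 μM DETA-NO, in stable CHO-K1/sGC α1/β1 cells (4×10^5/mL; buffer with 0.5 mM IBMX, 5 mM MgCl2, 10 mM HEPES, 0.05% BSA; 2.5% DMSO). Activation normalized to reference Compound A maximum; 4P fit.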

`C[C@@]1(c2ccc(F)cc2)C(=O)Nc2nc(-c3cn4ncnc4c(Cc4cccc(O)c4)n3)nc(N)c21` [Example 113B, (S)-4-amino-5-(4-fluorophenyl)-2-(8-(3-hydroxybenzyl)-[1,2,4]triazolo[1,5-a]pyrazin-6-yl)-5-methyl-5H-pyrrolo[2,3-d]pyrimidin-6(7H)-one]: the Emax came out at 171%.

In the case of `CCCCc1nc(-c2nc(N)c3c(n2)NC(=O)C3(c2ccccn2)C2CC2)cn2ncnc12` (centres unmarked) [Example 116A, 4-amino-2-(8-butyl-[1,2,4]triazolo[1,5-a]pyrazin-6-yl)-5-cyclopropyl-5-(pyridin-2-yl)-5H-pyrrolo[2,3-d]pyrimidin-6(7H)-one], the Emax amounted to 85%.

As to `N#Cc1ccc(C2(C3CC3)C(=O)Nc3nc(-c4cn5ncnc5c(CCCC(F)(F)F)n4)nc(N)c32)nc1` (centres unmarked) [Example 117A, 6-(4-Amino-5-cyclopropyl-6-oxo-2-(8-(4,4,4-trifluorobutyl)-[1,2,4]triazolo[1,5-a]pyrazin-6-yl)-6,7-dihydro-5H-pyrrolo[2,3-d]pyrimidin-5-yl)nicotinonitrile], the Emax came to 140%.

For `N#Cc1ccc(C2(C3CC3)C(=O)Nc3nc(-c4cn5ncnc5c(CCC(F)(F)C(F)(F)F)n4)nc(N)c32)nc1` (centres unmarked) [Example 118A, 6-(4-Amino-5-cyclopropyl-6-oxo-2-(8-(3,3,4,4,4-pentafluorobutyl)-[1,2,4]triazolo[1,5-a]pyrazin-6-yl)-6,7-dihydro-5H-pyrrolo[2,3-d]pyrimidin-5-yl)nicotinonitrile], the Emax turned out to be 72%.

In the case of `O=C1Nc2nc(-c3cn4ncnc4c(CCC(F)(F)C(F)(F)F)n3)nc(O)c2C1(c1ccc(F)c(F)c1)C1CC1` (centres unmarked) [Example 123A, 5-cyclopropyl-5-(3,4-difluorophenyl)-4-hydroxy-2-(8-(3,3,4,4,4-pentafluorobutyl)-[1,2,4]triazolo[1,5-a]pyrazin-6-yl)-5H-pyrrolo[2,3-b]pyrimidin-6(7H)-one], the Emax came to 78%.

Turning to `O=C1Nc2nc(-c3cn4ncnc4c(CCC(F)(F)C(F)(F)F)n3)nc(O)c2C1(c1cncc(F)c1)C1CC1` (centres unmarked) [Example 124B, 5-cyclopropyl-5-(5-fluoropyridin-3-yl)-4-hydroxy-2-(8-(3,3,4,4,4-pentafluorobutyl)-[1,2,4]triazolo[1,5-a]pyrazin-6-yl)-5H-pyrrolo[2,3-d]pyrimidin-6(7H)-one], the Emax came to 88%.

For `CC1(c2ccc(Cl)cc2)C(=O)Nc2nc(-c3cn4ncnc4c(CCC(F)(F)C(F)(F)F)n3)nc(O)c21` (centres unmarked) [Example 126A, 5-(4-chlorophenyl)-4-hydroxy-5-methyl-2-(8-(3,3,4,4,4-pentafluorobutyl)-[1,2,4]triazolo[1,5-a]pyrazin-6-yl)-5H-pyrrolo[2,3-d]pyrimidin-6(7H)-one], the Emax stood at 102%.

As for `CC1(c2ccccn2)C(=O)Nc2nc(-c3cn4ncnc4c(CCC(F)(F)C(F)(F)F)n3)nc(O)c21` (centres unmarked) [Example 127B, 4-hydroxy-5-methyl-2-(8-(3,3,4,4,4-pentafluorobutyl)-[1,2,4]triazolo[1,5-a]pyrazin-6-yl)-5-(pyridin-2-yl)-5H-pyrrolo[2,3-d]pyrimidin-6(7H)-one], the Emax worked out at 129%.

Consider `CC1(c2ccccc2)C(=O)Nc2nc(-c3cn4ncnc4c(CCC(F)(F)C(F)(F)F)n3)nc(O)c21` (centres unmarked) [Example 128B, 4-hydroxy-5-methyl-2-(8-(3,3,4,4,4-pentafluorobutyl)-[1,2,4]triazolo[1,5-a]pyrazin-6-yl)-5-phenyl-5H-pyrrolo[2,3-d]pyrimidin-6(7H)-one], for which the Emax was found to be 106%.

Take `CC1(c2cccc(F)c2)C(=O)Nc2nc(-c3cn4ncnc4c(CCC(F)(F)C(F)(F)F)n3)nc(O)c21` (centres unmarked) [Example 129B, 5-(3-fluorophenyl)-4-hydroxy-5-methyl-2-(8-(3,3,4,4,4-pentafluorobutyl)-[1,2,4]triazolo[1,5-a]pyrazin-6-yl)-5,7-dihydro-6H-pyrrolo[2,3-d]pyrimidin-6-one]: the Emax came to 66%.

With `Cc1ccc(C2(C)C(=O)Nc3nc(-c4cn5ncnc5c(CCC(F)(F)C(F)(F)F)n4)nc(O)c32)nc1` (centres unmarked) [Example 130B, 4-hydroxy-5-methyl-5-(5-methylpyridin-2-yl)-2-(8-(3,3,4,4,4-pentafluorobutyl)-[1,2,4]triazolo[1,5-a]pyrazin-6-yl)-5H-pyrrolo[2,3-d]pyrimidin-6(7H)-one], the Emax worked out at 109%.

`CC1(c2ccc(C#N)cn2)C(=O)Nc2nc(-c3cn4ncnc4c(CCC(F)(F)C(F)(F)F)n3)nc(O)c21` (centres unmarked) [Example 131A, 6-(4-hydroxy-5-methyl-6-oxo-2-(8-(3,3,4,4,4-pentafluorobutyl)-[1,2,4]triazolo[1,5-a]pyrazin-6-yl)-6,7-dihydro-5H-pyrrolo[2,3-d]pyrimidin-5-yl)nicotinonitrile]: the Emax was 99%.

Turning to `Cc1nc2c(CCC(F)(F)C(F)(F)F)nc(-c3nc(O)c4c(n3)NC(=O)[C@@]4(C)c3ccc(F)cc3)cn2n1` [Example 133B, (S)-5-(4-fluorophenyl)-4-hydroxy-5-methyl-2-(2-methyl-8-(3,3,4,4,4-pentafluorobutyl)-[1,2,4]triazolo[1,5-a]pyrazin-6-yl)-5H-pyrrolo[2,3-d]pyrimidin-6(7H)-one], the Emax came out at 87%.

Turning to `CC1(c2ccc(C(F)(F)F)cc2)C(=O)Nc2nc(-c3cn4ncnc4c(CCCC(F)(F)F)n3)nc(O)c21` (centres unmarked) [Example 137B, 4-hydroxy-5-methyl-2-(8-(4,4,4-trifluorobutyl)-[1,2,4]triazolo[1,5-a]pyrazin-6-yl)-5-(4-(trifluoromethyl)phenyl)-5H-pyrrolo[2,3-d]pyrimidin-6(7H)-one], the Emax amounted to 102%.

With `O=C1Nc2nc(-c3cn4ncnc4c(CCCC(F)(F)F)n3)nc(O)c2C1(c1ccc(F)cc1)C1CC1` (centres unmarked) [Example 139B, 5-cyclopropyl-5-(4-fluorophenyl)-4-hydroxy-2-(8-(4,4,4-trifluorobutyl)-[1,2,4]triazolo[1,5-a]pyrazin-6-yl)-5H-pyrrolo[2,3-d]pyrimidin-6(7H)-one], the Emax worked out at 169%.

As for `O=C1Nc2nc(-c3cn4ncnc4c(CCCC(F)(F)F)n3)nc(O)c2C1(c1ccc(C(F)(F)F)cc1)C1CC1` (centres unmarked) [Example 144A, 5-cyclopropyl-4-hydroxy-2-(8-(4,4,4-trifluorobutyl)-[1,2,4]triazolo[1,5-a]pyrazin-6-yl)-5-(4-(trifluoromethyl)phenyl)-5H-pyrrolo[2,3-d]pyrimidin-6(7H)-one], the Emax came out at 87%.

Turning to `CC1(c2ccccn2)C(=O)Nc2nc(-c3cn4ncnc4c(CCCC(F)(F)F)n3)nc(O)c21` (centres unmarked) [Example 145B, 4-hydroxy-5-methyl-5-(pyridin-2-yl)-2-(8-(4,4,4-trifluorobutyl)-[1,2,4]triazolo[1,5-a]pyrazin-6-yl)-5H-pyrrolo[2,3-d]pyrimidin-6(7H)-one], the Emax stood at 64%.

Take `CC1(c2ccc(F)c(Cl)c2)C(=O)Nc2nc(-c3cn4ncnc4c(CCCC(F)(F)F)n3)nc(O)c21` (centres unmarked) [Example 147B, 5-(3-chloro-4-fluorophenyl)-4-hydroxy-5-methyl-2-(8-(4,4,4-trifluorobutyl)-[1,2,4]triazolo[1,5-a]pyrazin-6-yl)-5,7-dihydro-6H-pyrrolo[2,3-d]pyrimidin-6-one]: the Emax was determined as 94%.

With `COc1ccc(C2(C)C(=O)Nc3nc(-c4cn5ncnc5c(CCCC(F)(F)F)n4)nc(O)c32)nc1` (centres unmarked) [Example 148A, 4-hydroxy-5-(5-methoxypyridin-2-yl)-5-methyl-2-(8-(4,4,4-trifluorobutyl)-[1,2,4]triazolo[1,5-a]pyrazin-6-yl)-5H-pyrrolo[2,3-d]pyrimidin-6(7H)-one], the Emax worked out at 96%.

Consider `Cc1ccc(C2(C)C(=O)Nc3nc(-c4cn5ncnc5c(CCCC(F)(F)F)n4)nc(O)c32)nc1` (centres unmarked) [Example 149B, 4-hydroxy-5-methyl-5-(5-methylpyridin-2-yl)-2-(8-(4,4,4-trifluorobutyl)-[1,2,4]triazolo[1,5-a]pyrazin-6-yl)-5H-pyrrolo[2,3-d]pyrimidin-6(7H)-one], for which the Emax is 63%.
